{"source": "paper PMC3324652", "about": "(2012)", "biological_target": "cannabinoid receptor type 2 (CB2) (Homo sapiens, UniProt P34972)", "sequence (P34972 whole entry)": "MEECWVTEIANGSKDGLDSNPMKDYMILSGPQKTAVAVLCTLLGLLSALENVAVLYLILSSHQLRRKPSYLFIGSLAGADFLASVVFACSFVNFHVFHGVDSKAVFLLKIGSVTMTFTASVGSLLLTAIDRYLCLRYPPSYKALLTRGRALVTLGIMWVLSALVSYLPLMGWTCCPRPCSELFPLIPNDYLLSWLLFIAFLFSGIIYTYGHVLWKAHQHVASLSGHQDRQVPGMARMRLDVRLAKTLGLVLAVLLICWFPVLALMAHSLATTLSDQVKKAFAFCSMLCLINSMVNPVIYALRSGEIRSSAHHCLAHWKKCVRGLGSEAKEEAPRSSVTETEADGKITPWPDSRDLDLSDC", "test": "radioligand saturation binding"}
{"smiles": "CCCCOc1c(OC)ccc2cc(C(=O)NCc3ccc(F)cc3)c(=O)[nH]c12", "note": "[[18F]-14, 7-methoxy-8-butoxy-2-oxo-1,2-dihydroquinoline-3-carboxylic acid-(4-fluorobenzyl)amide]", "values": [{"measurement": "Kd", "result": 3.4, "unit": "nM"}]}
